The values below are quoted from earlier work in patent US20230372315A1, “Liquid-State Pharmaceutical Composition Exhibiting Excellent Preservative Effectiveness” (ISHIHARA SANGYO KAISHA, LTD., priority 2020, published 2023).

For data set [1] the following is noted: beyond pH8.
For data set [2] the following is noted: water having pH5 or less.

Take `OCc1ccccc1` [Benzyl alcohol]: in data set [1], the antibacterial activity entry was “virtually no antibacterial activity”.

For `CCS(=O)(=O)Nc1ncc(C(F)(F)F)cc1NC(=O)C1CCCCC1` [N-(2-ethylsulfonylamino-5-trifluoromethyl-3-pyridyl)cyclohexanecarboxamide], the solubility in water entry in data set [2] was “virtually not dissolved”.
